US11576382B2, “Naphthalene isoxazoline compounds for controlling invertebrate pests” (FMC Corporation, priority 2018, dated 2023)

Tests used:
Type in all cases: in vivo
[1] = test system: potato leafhopper (Empoasca fabae (Harris)); assay: Test D: control of potato leafhopper through contact and/or systemic means; conditions: 144 h
Protocol: (§1) Formulation and Spray Methodology for Tests A-H
(§2) Test compounds were formulated using a solution containing 10% acetone, 90% water and 300 ppm Activator 90® non-ionic surfactant (Loveland Products, Loveland, Colo., USA). The formulated compounds were applied in 1 mL of liquid through an atomizer nozzle positioned 1.27 cm (0.5 inches) above the top of each test unit. Test compounds were sprayed at the rates indicated, and each test was replicated three times.
For evaluating control of potato leafhopper (Empoasca fabae (Harris)) through contact and/or systemic means, the test unit consisted of a small open container with a 5-6-day-old Soleil bean plant (primary leaves emerged) inside. White sand was added to the top of the soil, and one of the primary leaves was excised prior to application of the test compound.
Test compounds were formulated and sprayed at 250, 50, 10 and 2 ppm. After spraying of the formulated test compound, the test units were allowed to dry for 1 hour before they were post-infested with 5 potato leafhoppers (18-to-21-day-old adults). A black, screened cap was placed on the top of the test unit, and the test units were held for 6 days in a growth chamber at 20° C. and 70% relative humidity. Each test unit was then visually assessed for insect mortality.

[2] = test system: cotton melon aphid (Aphis gossypii (Glover)); assay: Test F: control of cotton melon aphid through contact and/or systemic means; conditions: 144 h
Protocol: as §1, §2
For evaluating control of cotton melon aphid (Aphis gossypii (Glover)) through contact and/or systemic means, the test unit consisted of a small open container with a 5-day-old okra plant inside. This was pre-infested with 30-40 insects on a piece of leaf according to the cut-leaf method, and the soil of the test unit was covered with a layer of sand.
Test compounds were formulated and sprayed at 250, 50 and 10 ppm. After spraying, the test units were maintained in a growth chamber for 6 days at 19° C. and 70% relative humidity. Each test unit was then visually assessed for insect mortality.

[3] = test system: sweetpotato whitefly (Bemisia tabaci (Gennadius)); assay: Test G: control of sweetpotato whitefly through contact and/or systemic means; conditions: in Gossypium hirsutum, 312 h
Protocol: as §1, §2
For evaluating control of the sweetpotato whitefly (Bemisia tabaci (Gennadius)) through contact and/or systemic means, the test unit consisted of a small open container with a 12-14-day-old cotton plant inside. Prior to the spray application, both cotyledons were removed from the plant, leaving one true leaf for the assay. Adult whiteflies were allowed to lay eggs on the plant and then were removed from the test unit. Cotton plants infested with at least 15 eggs were submitted to the test for spraying.
Test compounds were formulated and sprayed at 250, 50, and 10 ppm. After spraying, the test units were allowed to dry for 1 hour. The cylinders were then removed, and the units were taken to a growth chamber and held for 13 days at 28° C. and 50-70% relative humidity. Each test unit was then visually assessed for insect mortality.

[4] = test system: green peach aphid (Myzus persicae (Sulzer)); assay: Test E: control of green peach aphid through contact and/or systemic means; conditions: in Raphanus sativus, 144 h
Protocol: as §1, §2
For evaluating control of green peach aphid (Myzus persicae (Sulzer)) through contact and/or systemic means, the test unit consisted of a small open container with a 12-15-day-old radish plant inside. This was pre-infested by placing on a leaf of the test plant 30-40 aphids on a piece of leaf excised from a culture plant (cut-leaf method). The aphids moved onto the test plant as the leaf piece desiccated. After pre-infestation, the soil of the test unit was covered with a layer of sand.
Test compounds were formulated and sprayed at 250, 50 and 10 ppm. After spraying of the formulated test compound, each test unit was allowed to dry for 1 hour and then a black, screened cap was placed on top. The test units were held for 6 days in a growth chamber at 19-21° C. and 50-70% relative humidity. Each test unit was then visually assessed for insect mortality.

| SMILES | mortality at 50 ppm [1] | mortality at 250 ppm [1] | mortality at 250 ppm [2] | mortality at 2 ppm [1] | mortality at 10 ppm [1] | mortality at 50 ppm [3] | mortality at 50 ppm [4] | mortality at 10 ppm [2] | mortality at 50 ppm [2] | mortality at 2 ppm [3] | mortality at 10 ppm [3] | mortality at 250 ppm [4] |
| --- | --- | --- | --- | --- | --- | --- | --- | --- | --- | --- | --- | --- |
| C[C@@H](NC(=O)c1ccc(C2=NOC(c3cc(Cl)c(F)c(Cl)c3)(C(F)(F)F)C2)c2ccccc12)C(N)=O (stereo partly drawn) [Compound 1, N-[(1R)-2-amino-1-methyl-2-oxoethyl]-4-[5-(3,5-dichloro-4-fluorophenyl)-4,5-dihydro-5-(trifluoromethyl)-3-isoxazolyl]-1-naphthalenecarboxamide] | ≥ 80% | ≥ 80% | ≥ 80% |  |  |  |  |  |  |  |  |  |
| O=C(NCc1ccccn1)c1ccc(C2=NOC(c3cc(Cl)c(F)c(Cl)c3)(C(F)(F)F)C2)c2ccccc12 (stereo not drawn) [Compound 15, 4-[5-(3,5-dichloro-4-fluorophenyl)-4,5-dihydro-5-(trifluoromethyl)-3-isoxazolyl]-N-(2-pyridinylmethyl)-1-naphthalenecarboxamide] | ≥ 80% |  |  | ≥ 80% | ≥ 80% | ≥ 70% |  |  |  |  |  |  |
| CON=CNC(=O)c1ccc(C2=NOC(c3cc(Cl)c(F)c(Cl)c3)(C(F)(F)F)C2)c2ccccc12 (stereo not drawn) [Compound 33, 4-[5-(3,5-dichloro-4-fluorophenyl)-4,5-dihydro-5-(trifluoromethyl)-3-isoxazolyl]-N-[(methoxyimino)methyl]-1-naphthalenecarboxamide] | ≥ 80% |  |  | ≥ 80% | ≥ 80% | ≥ 70% | ≥ 80% | ≥ 80% | ≥ 80% | ≥ 70% | ≥ 70% |  |
| COC(=O)CNC(=O)c1ccc(C2=NOC(c3cc(Cl)c(F)c(Cl)c3)(C(F)(F)F)C2)c2ccccc12 (stereo not drawn) [Compound 35, N-[[4-[5-(3,5-dichloro-4-fluorophenyl)-4,5-dihydro-5-(trifluoromethyl)-3-isoxazolyl]-1-naphthalenyl]carbonyl]glycine methyl ester] |  | ≥ 80% | ≥ 80% |  |  |  | ≥ 80% |  | ≥ 80% |  |  | ≥ 80% |
